Laboratory results reported in patent publication US20120065195A1, “COMPOUNDS FOR TREATING NEURODEGENERATIVE DISEASES” (priority 2010, published 2012).

target: T1, BACE1 (Homo sapiens, UniProt P56817); assay: Cellular BACE1 Inhibition Assay (in vitro cellular Amyloidβ 1-40 production assay, HTRF immunoassay); type: cell-based
T1 construct: endogenous in cells; host or cells: HEK-293 (stably transfected with wild type APP695 only)
Method: The BACE inhibition properties of the compounds of the invention may be determined by the following in vitro cellular Amyloidβ 1-40 production assay.
Inhibition of Amyloidβ1-40 production was determined by incubating cells with compound for 48 hours and quantifying the level of Amyloidβ 1-40 using an HTRF immunoassay.
Materials and Methods: HEK-293 cells stably transfected with a DNA construct containing the coding sequence for the wild type APP695 sequence were grown in DMEM supplemented with 10% fetal bovine serum, penicillin/streptomycin and 150 μg/mL G418. Cells were plated in 96-well plates at 35,000 cells/well and allowed to attach for 8-12 hours. Media was changed to DMEM supplemented with 10% fetal bovine serum, penicillin/streptomycin 15 minutes prior to compound addition. Diluted compounds were then added at a final concentration of 0.5% DMSO. After 48 hours, 4 μL of media from each well was added to a corresponding well of a 384 well plate (Perkin Elmer Cat#6008280) containing the HTRF reagents. HTRF reagents were obtained from the CisBio Amyloidβ 1-40 peptide assay kit (Cat#62B40PEC) and were prepared as follows anti-peptide β (1-40)-Cryptate and anti-peptide β (1-40)-XL655 were stored in 2 plate aliquots at −80° C. Diluent and Reconstitution buffer were stored at 4° C. Aliquots of the two antibodies were diluted 1:100 with Reconstitution buffer, and this mixture was diluted 1:2 with Diluent. 12 μL of the reagent mixture was added to the required wells of the 384 well assay plate. The assay plate was incubated at 4° C. for 17 hours and then analyzed for fluorescence at 665 and 620 nm.

T1 sequence (P56817 46-501): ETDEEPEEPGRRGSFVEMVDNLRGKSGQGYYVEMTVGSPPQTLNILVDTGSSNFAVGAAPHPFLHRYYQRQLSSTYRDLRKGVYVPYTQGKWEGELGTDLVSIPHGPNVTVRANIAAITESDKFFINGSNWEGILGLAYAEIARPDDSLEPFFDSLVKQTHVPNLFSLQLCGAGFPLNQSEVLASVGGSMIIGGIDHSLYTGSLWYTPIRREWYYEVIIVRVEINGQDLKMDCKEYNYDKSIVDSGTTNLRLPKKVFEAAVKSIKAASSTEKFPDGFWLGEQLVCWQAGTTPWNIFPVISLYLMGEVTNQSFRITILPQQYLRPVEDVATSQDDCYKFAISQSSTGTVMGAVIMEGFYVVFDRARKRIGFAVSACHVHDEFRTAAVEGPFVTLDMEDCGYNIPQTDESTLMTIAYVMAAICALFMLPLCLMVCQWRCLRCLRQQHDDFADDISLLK

Row | Structure (SMILES) | IC50 [nM]
1 | CN1C(=O)C2(N=C1N)c1cc(-c3cccnc3F)ccc1CC(C)(C)C2(F)F (stereo not shown) [Example 159, 2-amino-2′,2′-difluoro-7′-(2-fluoropyridin-3-yl)-1,3′,3′-trimethyl-3′,4′-dihydro-TH-spiro[imidazole-4,1′-naphthalen]-5(1H)-one] | 26.1
2 | CN1C(=O)C2(N=C1N)c1cc(-c3cncc(Cl)c3)ccc1CCC2(C)C (stereo not shown) [Example 26, 2-amino-7′-(5-chloropyridin-3-yl)-1,2′,2′-trimethyl-3′,4′-dihydro-2′H-spiro[imidazole-4,1′-naphthalen]-5(1H)-one] | 19.7
3 | CC1CCc2ccc(-c3cc(F)cc(Cl)c3)cc2C12N=C(N)N(C)C2=O (stereo not shown) [Example 56, 2-amino-7′-(3-chloro-5-fluorophenyl)-1,2′-dimethyl-3′,4′-dihydro-2′H-spiro[imidazole-4,1′-naphthalen]-5(1H)-one] | 361
4 | CN1C(=O)C2(N=C1N)c1cc(-c3cccc(Cl)c3)ccc1CCC21CCOCC1 (stereo not shown) [Example 35, 2-amino-7″-(3-chlorophenyl)-1-methyl-2′,3′,5′,6′-tetrahydro-3″,4″-dihydro-2″H-dispiro[midazol-4,1″-naphthalen-2″,4′-pyran]-5(1H)-one] | 192
5 | COc1ccnc(-c2ccc3c(c2)C2(CC(C)(C)C3)N=C(N)N(C)C2=O)c1 (stereo not shown) [Example 137, 2-amino-7′-(4-methoxypyridin-2-yl)-1,3′,3′-trimethyl-3′,4′-dihydro-2′H-spiro[imidazole-4,1′-naphthalen]-5(1H)-one] | 6.1
6 | CC1(C)Cc2ccc(NC(=O)c3ccc(Br)cn3)cc2C2(COC(N)=N2)C1 (stereo not shown) [Example 88, N-(2′-amino-3,3-dimethyl-3,4-dihydro-2H,5′H-spiro[naphthalene-1,4′-oxazole]-7-yl)-5-bromopicolinamide] | 46.3
7 | CN1C(=O)C2(CC(C)(C)Cc3ccc(C#CC4CC4)cc32)N=C1N (stereo not shown) [Example 17, 2-amino-7′-(cyclopropylethynyl)-1,3′,3′-trimethyl-3′,4′-dihydro-2′H-spiro[imidazole-4,1′-naphthalen]-5(1H)-one] | 81.9
8 | CN1C(=O)C2(CCCc3ccc(-c4cncc(Cl)c4)cc32)N=C1N (stereo not shown) [Example 23, 2-amino-7′-(5-chloropyridin-3-yl)-1-methyl-3′,4′-dihydro-2′H-spiro[imidazole-4,1′-naphthalen]-5(1H)-one] | 28.5
9 | CN1C(=O)C2(N=C1N)c1cc(-c3cncnc3)ccc1CCC2(C)C (stereo not shown) [Example 27, 2-amino-1,2′,2′-trimethyl-7′-(pyrimidin-5-yl)-3′,4′-dihydro-TH-spiro[imidazole-4,1′-naphthalen]-5(1H)-one] | 10.1
10 | CN1C(=O)C2(CC3(CCOCC3)Cc3ccc(-c4cncnc4)cc32)N=C1N (stereo not shown) [Example 74, 2-amino-7″-(pyrimidin-5-yl)-1-methyl-2′,3′,5′,6′-tetrahydro-3″,4″-dihydro-2″H-dispiro[imidazol-4,1″- naphthalen-3″,4′-pyran]-5(1H)-one] | 258
11 | Cc1cncc(-c2ccc3c(c2)C2(CC(C)(C)C3)N=C(N)N(C)C2=O)c1 (stereo not shown) [Example 131, 2-amino-1,3′,3′-trimethyl-7′-(5-methylpyridin-3-yl)-3′,4′-dihydro-2′H-spiro[imidazole-4,1′-naphthalen]-5 (1H)-one] | 5.1
12 | CN1C(=O)C2(CC3(CCOCC3)Cc3ccc(-c4cc(F)cc(Cl)c4)cc32)N=C1N (stereo not shown) [Example 42, 2-amino-7″-(3-fluoro-5-chlorophenyl)-1-methyl-2′,3′,5′,6′-tetrahydro-3″,4″-dihydro-2″H-dispiro[imidazol-4,1″-naphthalen-3″,4′-pyran]-5(1H)-one] | 121
13 | CC1CCc2ccc(-c3cccc(OC(F)F)c3)cc2C12N=C(N)N(C)C2=O (stereo not shown) [Example 57, 2-amino-7′-(3-(difluoromethoxy)phenyl)-1,2′-dimethy1-3′,4-dihydro-2′H-spiro[imidazole-4,1′-naphthalen]-5(1H)-one] | 363
14 | CC(C)CCc1ccc2c(c1)C1(N=C(N)N(C)C1=O)C(C)CC2 (stereo not shown) [Example 22] | 264
15 | CN1C(=O)CC2(CC(C)(C)Cc3ccc(-c4cccnc4F)cc32)N=C1N (stereo not shown) [Example 96, 2′-amino-7-(2-fluoropyridin-3-yl)-1′,3,3-trimethyl-3,4-dihydro-1′H,2H-spiro[naphthalene-1,4′-pyrimidin]-6′(5′H)-one] | 1320
16 | Cc1cc(C(=O)Nc2ccc3c(c2)C2(CCSC(N)=N2)CC(C)(C)C3)c(C)o1 (stereo not shown) [Example 95, N-(2′-amino-3,3-dimethyl-3,4,5′,6′-tetrahydro-2H-spiro[naphthalene-1,4′-[1,3]thiazine]-7-yl)-2,5-dimethylfuran-3-carboxamide] | 276

The remaining compounds from weak to strong by IC50, led by results:

Row | IC50 [nM] | Structure (SMILES)
17 | 1430 | CN1C(=O)C2(CC(C)(C)Cc3ccc(-c4cccc(Cl)c4)nc32)N=C1N (stereo not shown) [Example 20, 2-amino-2′-(3-chlorophenyl)-1,6′,6′-trimethyl-6′,7′-dihydro-5′H-spiro[imidazole-4,8′-quinolin]-5(1H)-one]
18 | 482 | CC1(C)Cc2ccc(-c3cncnc3)cc2C2(CSC(N)=N2)C1 (stereo not shown) [Example 109, 3,3-dimethyl-7-(pyrimidin-5-yl)-3,4-dihydro-2H,5′H-spiro[naphthalene-1,4′-thiazol]-2′-amine]
19 | 241 | CN1C(=O)C2(CC3(CCC3)Cc3ccc(-c4cccc(Cl)c4)cc32)N=C1N (stereo not shown) [Example 37, 2-amino-7′-(3-chlorophenyl)-1-methyl-5-oxo-3′,4′-dihydro-2′H-dispiro[imidazol-4,1′-naphthalen-3′,1″-cyclobutyl]-5 (1H)-one]
20 | 104 | CN1C(=O)C2(CCCc3ccc(-c4cncnc4)cc32)N=C1N (stereo not shown) [Example 25, 2-Amino-1-methyl-7′-(pyrimidin-5-yl)-3′,4′-dihydro-2′H-spiro[imidazole-4,1′-naphthalen]-5(1H)-one]
21 | 76.7 | CN1C(=O)C2(CC(C)(C)Cc3ccc(/C=C/C4CC4)cc32)N=C1N (stereo not shown) [Example 15, (E)-2-amino-7′-(2-cyclopropylvinyl)-1,3′,3′-trimethyl-3′,4′-dihydro-2′H-spiro[imidazole-4,1′-naphthalen]-5(1H)-one]
22 | 69.6 | CN1C(=O)C2(CC3(CCOCC3)Cc3ccc(/C=C/C(C)(C)C)cc32)N=C1N (stereo not shown) [Example 45, (E)-2-amino-7″-(3,3-dimethylbut-1-enyl)-1-methyl-2′,3′,5′,6′-tetrahydro-3″,4″-dihydro-2″H-dispiro[imidazol-4,1″-naphthalen-3″,4′-pyran]-5(1H)-one]
23 | 48.6 | CN1C(=O)[C@@]2(N=C1N)c1cc(-c3cccc(Cl)c3)ccc1CC[C@H]2CC1CCN(CC(F)F)CC1 [Example 32, (1′S,2′S)-2-amino-7′-(3-chlorophenyl)-2′-((1-(2,2-difluoroethyl)piperidin-4-yl)methyl)-1-methyl-3′,4′-dihydro-2′H-spiro[imidazole-4,1′-naphthalen]-5(1H)-one]
24 | 39.6 | CN1C(=O)C2(N=C1N)c1cc(-c3cncnc3)ccc1CC(C)(C)C2F (stereo not shown) [Example 157, 2-amino-2′-fluoro-1,3′,3′-trimethyl-7′-(pyrimidin-5-yl)-3′,4′-dihydro-2′H-spiro[imidazole-4,1′-naphthalen]-5(1H)-one]
25 | 27.1 | CN1C(=O)[C@]2(N=C1N)c1cc(-c3cncnc3)ccc1C[C@]1(C)CC12 (single isomer, unassigned) [Example 155]
26 | 17.2 | CN1C(=O)C2(N=C1N)c1cc(-c3cccnc3F)ccc1CC(C)(C)C2F (stereo not shown) [Example 156, 2-amino-2′-fluoro-7′-(2-fluoropyridin-3-yl)-1,3′,3′-trimethyl-3′,4′-dihydro-2′H-spiro[imidazole-4,1′-naphthalen]-5(1H)-one]
27 | 16.8 | Cc1nc(C(=O)Nc2ccc3c(c2)C2(COC(N)=N2)CC(C)(C)C3)co1 (stereo not shown) [Example 90, N-(2′-amino-3-dimethyl-3,4-dihydro-2H,5′H-spiro[naphthalene-1,4′-oxazole]-7-yl)-2-methyloxazole-4-carboxamide]
28 | 14.8 | CN1C(=O)C2(CC(C)(C)Cc3ccc(-c4cc(C(F)(F)F)ccn4)cc32)N=C1N (stereo not shown) [Example 139, 2-amino-1,3′,3′-trimethyl-7′-(4-(trifluoromethyl)pyridin-2-yl)-3′,4′-dihydro-2′H-spiro[imidazole-4,1′-naphthalen]-5(1H)-one]
29 | 8.1 | Cc1cnc(F)c(-c2ccc3c(c2)C2(CC(C)(C)C3)N=C(N)N(C)C2=O)c1 (stereo not shown) [Example 135, 2-amino-7′-(2-fluoro-5-methylpyridin-3-yl)-1,3′,3′-trimethyl-3′,4′-dihydro-2′H-spiro[imidazole-4,1′-naphthalen]-5(1H)-one]
30 | 7.9 | CN1C(=O)C2(CC(C)(C)Cc3ccc(-c4cncc(C#N)c4)cc32)N=C1N (stereo not shown) [Example 134, 5-(2-amino-1,3′,3′-trimethyl-5-oxo-1,3′,4′,5-tetrahydro-2′H-spiro[imidazole-4,1′-naphthalene]-7′-yl)nicotinonitrile]
31 | 6.7 | CN1C(=O)C2(N=C1N)c1cc(-c3cncc(Cl)c3)ccc1CC(C)(C)C2F (stereo not shown) [Example 158, 2-amino-7′-(5-chloropyridin-3-yl)-2′-fluoro-1,3′,3′-trimethyl-3′,4′-dihydro-2′H-spiro[imidazole-4,1′-naphthalen]-5(1H)-one]
